Reference: paper PMC5218480 (PLoS ONE, 2017)

Tested on: MV-4-11 cells
Assay: Gene expression microarray analysis (Affymetrix PrimeView) and GSEA
Assay type: cell-based, human
Design: RFU PODN (11730768_x_at) / Fold change /veh PODN (11730768_x_at) / RFU LINC00158 (11744669_a_at) / Fold change /veh LINC00158 (11744669_a_at) / RFU DUSP10 (11751237_a_at) / Fold change /veh DUSP10 (11751237_a_at) / RFU ID3 (11757404_x_at) / Fold change /veh ID3 (11757404_x_at) / RFU PLEKHG5 (11737974_s_at) / Fold change /veh PLEKHG5 (11737974_s_at) / RFU LRRC4B (11730491_at) / Fold change /veh LRRC4B (11730491_at) / RFU GIMAP4 (11747438_a_at) / Fold change /veh GIMAP4 (11747438_a_at) / RFU KRT8 (11758183_x_at) / Fold change /veh KRT8 (11758183_x_at) / RFU CNN1 (11734310_a_at) / Fold change /veh CNN1 (11734310_a_at) / RFU VPS37D (11726825_at) / Fold change /veh VPS37D (11726825_at) / RFU C10orf10 (11716522_x_at) / Fold change /veh C10orf10 (11716522_x_at) / RFU KIR2DL2 /// KIR2DL4 /// KIR2DL5A /// KIR2DL5B /// KIR2DS1 /// KIR2DS2 /// KIR2DS3 /// KIR2DS4 /// KIR3DL3 /// KIR3DL3 /// KIR3DS1 (11738374_at) / Fold change /veh KIR2DL2 /// KIR2DL4 /// KIR2DL5A /// KIR2DL5B /// KIR2DS1 /// KIR2DS2 /// KIR2DS3 /// KIR2DS4 /// KIR3DL3 /// KIR3DL3 /// KIR3DS1 (11738374_at) / RFU C1QL1 (11718748_at) / Fold change /veh C1QL1 (11718748_at) / RFU TMPRSS4 (11747572_a_at) / Fold change /veh TMPRSS4 (11747572_a_at) / RFU HAMP (11756126_x_at) / Fold change /veh HAMP (11756126_x_at) / RFU RNFT2 (11725882_a_at) / Fold change /veh RNFT2 (11725882_a_at) / RFU NR4A2 (11747474_a_at) / Fold change /veh NR4A2 (11747474_a_at) / RFU ABCC12 (11746883_a_at) / Fold change /veh ABCC12 (11746883_a_at) / RFU TMEM136 (11760407_x_at) / Fold change /veh TMEM136 (11760407_x_at) / RFU CLDN22 /// WWC2 (11732394_at) / Fold change /veh CLDN22 /// WWC2 (11732394_at) / RFU HLA-DPB1 (11760878_x_at) / Fold change /veh HLA-DPB1 (11760878_x_at) / RFU SPINT1 (11716480_a_at) / Fold change /veh SPINT1 (11716480_a_at) / RFU GAP43 (11754022_s_at) / Fold change /veh GAP43 (11754022_s_at) / RFU A4GNT (11735810_at) / Fold change /veh A4GNT (11735810_at) / RFU PRB3 (11715151_x_at) / Fold change /veh PRB3 (11715151_x_at) / RFU TUBB4B (11761932_at) / Fold change /veh TUBB4B (11761932_at) / RFU CAPN14 (11732068_a_at) / Fold change /veh CAPN14 (11732068_a_at) / RFU TMCC2 (11721928_a_at) / Fold change /veh TMCC2 (11721928_a_at) / RFU IRGQ (11745062_a_at) / Fold change /veh IRGQ (11745062_a_at) / RFU FAM174B (11720279_a_at) / Fold change /veh FAM174B (11720279_a_at) / RFU TMPRSS4 (11748680_a_at) / Fold change /veh TMPRSS4 (11748680_a_at) / RFU FAM212B (11763350_a_at) / Fold change /veh FAM212B (11763350_a_at) / RFU PLEKHG5 (11743358_a_at) / Fold change /veh PLEKHG5 (11743358_a_at) / RFU ZSCAN30 (11745921_a_at) / Fold change /veh ZSCAN30 (11745921_a_at) / RFU CMKLR1 (11741424_a_at) / Fold change /veh CMKLR1 (11741424_a_at) / RFU LOC101060620 /// MAPK8IP1 (11723275_at) / Fold change /veh LOC101060620 /// MAPK8IP1 (11723275_at) / RFU SPTSSB (11747773_x_at) / Fold change /veh SPTSSB (11747773_x_at) / RFU PRSS12 (11739890_at) / Fold change /veh PRSS12 (11739890_at) / RFU BIN1 (11741810_x_at) / Fold change /veh BIN1 (11741810_x_at) / RFU WNT11 (11732464_a_at) / Fold change /veh WNT11 (11732464_a_at) / RFU C10orf10 (11716521_a_at) / Fold change /veh C10orf10 (11716521_a_at) / RFU C5orf56 (11738089_at) / Fold change /veh C5orf56 (11738089_at) / RFU CYB561 (11721691_x_at) / Fold change /veh CYB561 (11721691_x_at) / RFU ANKRD19P (11752326_a_at) / Fold change /veh ANKRD19P (11752326_a_at) / RFU OR2T12 /// OR2T33 /// OR2T8 (11738714_s_at) / Fold change /veh OR2T12 /// OR2T33 /// OR2T8 (11738714_s_at) / RFU VCAN (11748164_a_at) / Fold change /veh VCAN (11748164_a_at) / RFU JSRP1 (11732532_at) / Fold change /veh JSRP1 (11732532_at) / RFU KRTAP10-11 (11738290_x_at) / Fold change /veh KRTAP10-11 (11738290_x_at) / RFU MYO3A (11730013_a_at) / Fold change /veh MYO3A (11730013_a_at) / RFU EBF3 (11725865_a_at) / Fold change /veh EBF3 (11725865_a_at) / RFU CAMK2N1 (11719241_x_at) / Fold change /veh CAMK2N1 (11719241_x_at) / RFU C5orf56 (11738088_a_at) / Fold change /veh C5orf56 (11738088_a_at) / RFU OLFML3 (11715873_a_at) / Fold change /veh OLFML3 (11715873_a_at) / RFU LOC100653217 /// NTM (11731650_a_at) / Fold change /veh LOC100653217 /// NTM (11731650_a_at) / RFU MAPK11 (11762145_a_at) / Fold change /veh MAPK11 (11762145_a_at) / RFU FIZ1 (11724087_x_at) / Fold change /veh FIZ1 (11724087_x_at) / RFU OASL (11726364_x_at) / Fold change /veh OASL (11726364_x_at) / RFU SOX15 (11748057_x_at) / Fold change /veh SOX15 (11748057_x_at) / RFU CD79A (11719716_a_at) / Fold change /veh CD79A (11719716_a_at) / RFU HIST1H1D (11736915_at) / Fold change /veh HIST1H1D (11736915_at) / RFU CASKIN2 (11723855_a_at) / Fold change /veh CASKIN2 (11723855_a_at) / RFU LOC730098 (11760151_x_at) / Fold change /veh LOC730098 (11760151_x_at) / RFU OR4N2 (11742367_at) / Fold change /veh OR4N2 (11742367_at) / RFU PRRT2 (11749266_a_at) / Fold change /veh PRRT2 (11749266_a_at) / RFU SNX32 (11753110_a_at) / Fold change /veh SNX32 (11753110_a_at) / RFU CDHR5 (11726645_a_at) / Fold change /veh CDHR5 (11726645_a_at) / RFU RCAN1 (11760418_a_at) / Fold change /veh RCAN1 (11760418_a_at) / RFU FAM167A (11723789_a_at) / Fold change /veh FAM167A (11723789_a_at) / RFU FAM26E (11764081_at) / Fold change /veh FAM26E (11764081_at) / RFU ISYNA1 (11749810_s_at) / Fold change /veh ISYNA1 (11749810_s_at) / RFU ACY1 (11761880_at) / Fold change /veh ACY1 (11761880_at) / RFU 11764098_at / Fold change /veh 11764098_at / RFU SAMD14 (11745864_x_at) / Fold change /veh SAMD14 (11745864_x_at) / RFU NPB (11741838_a_at) / Fold change /veh NPB (11741838_a_at) / RFU TMPRSS6 (11731388_a_at) / Fold change /veh TMPRSS6 (11731388_a_at) / RFU KRTAP10-2 (11738614_at) / Fold change /veh KRTAP10-2 (11738614_at) / RFU ARHGAP8 /// PRR5-ARHGAP8 (11727945_x_at) / Fold change /veh ARHGAP8 /// PRR5-ARHGAP8 (11727945_x_at) / RFU KRTAP5-7 /// NADSYN1 (11734609_at) / Fold change /veh KRTAP5-7 /// NADSYN1 (11734609_at) / RFU RASL12 (11751679_a_at) / Fold change /veh RASL12 (11751679_a_at) / RFU CDKN2B (11736163_a_at) / Fold change /veh CDKN2B (11736163_a_at) / RFU PRF1 (11729649_at) / Fold change /veh PRF1 (11729649_at) / RFU, ZNF638 /// ZNF638-IT1 / Fold change vs veh, ZNF638 /// ZNF638-IT1 / RFU, PANK3 / Fold change vs veh, PANK3 / RFU, SH3YL1 / Fold change vs veh, SH3YL1 / RFU, ZEB2 / Fold change vs veh, ZEB2 / RFU, NRIP1 / Fold change vs veh, NRIP1 / RFU, PTTG1IP / Fold change vs veh, PTTG1IP / RFU, CAPN2 / Fold change vs veh, CAPN2 / RFU, MED14 / Fold change vs veh, MED14 / RFU, SNORA58 / Fold change vs veh, SNORA58 / RFU, C1orf63 / Fold change vs veh, C1orf63 / RFU, LRRFIP1 / Fold change vs veh, LRRFIP1 / RFU, NDUFAF7 / Fold change vs veh, NDUFAF7 / RFU, SLC12A2 / Fold change vs veh, SLC12A2 / RFU, IBTK / Fold change vs veh, IBTK / RFU, ESF1 / Fold change vs veh, ESF1 / Fold change vs veh, TMEM50B / RFU, TAOK1 / Fold change vs veh, TAOK1 / RFU, ACBD3 / Fold change vs veh, ACBD3 / RFU, TMA16 / Fold change vs veh, TMA16 / RFU, RWDD3 / Fold change vs veh, RWDD3 / RFU, BCAT1 / Fold change vs veh, BCAT1 / RFU, EDEM3 / Fold change vs veh, EDEM3 / RFU, TMEM33 / Fold change vs veh, TMEM33 / RFU, WDR75 / Fold change vs veh, WDR75 / RFU, AHCTF1 / Fold change vs veh, AHCTF1 / RFU, TFRC / Fold change vs veh, TFRC / RFU, ZDHHC17 / Fold change vs veh, ZDHHC17 / RFU, NOM1 / Fold change vs veh, NOM1 / RFU, ARL8B / Fold change vs veh, ARL8B / RFU, ZBTB11 / Fold change vs veh, ZBTB11 / RFU, TAMM41 / Fold change vs veh, TAMM41 / RFU, KIAA1704 /// LOC100996395 / Fold change vs veh, KIAA1704 /// LOC100996395 / RFU, ING1 / Fold change vs veh, ING1 / RFU, TRMT61B / Fold change vs veh, TRMT61B / RFU, FUBP3 / Fold change vs veh, FUBP3 / RFU, TP53 / Fold change vs veh, TP53 / RFU, TNKS2 / Fold change vs veh, TNKS2 / RFU, ZFP14 / Fold change vs veh, ZFP14 / RFU, ACTR2 / Fold change vs veh, ACTR2 / RFU, PPP3R1 / Fold change vs veh, PPP3R1 / RFU, PIK3R1 / Fold change vs veh, PIK3R1 / RFU, HNRNPA1 / Fold change vs veh, HNRNPA1 / RFU, RNF170 / Fold change vs veh, RNF170 / RFU, ZNF28 / Fold change vs veh, ZNF28 / RFU, RNGTT / Fold change vs veh, RNGTT / RFU, OGT / Fold change vs veh, OGT / RFU, BRD1 / Fold change vs veh, BRD1 / RFU, MARS / Fold change vs veh, MARS / RFU, ZNF655 / Fold change vs veh, ZNF655 / RFU, FAHD1 / Fold change vs veh, FAHD1 / RFU, BDP1 / Fold change vs veh, BDP1 / RFU, LRRCC1 / Fold change vs veh, LRRCC1 / RFU, ARID1A / Fold change vs veh, ARID1A / RFU, ZNF146 / Fold change vs veh, ZNF146 / RFU, ZNF330 / Fold change vs veh, ZNF330 / RFU, GPN3 / Fold change vs veh, GPN3 / RFU, C9orf123 / Fold change vs veh, C9orf123 / RFU, N4BP2L2 / Fold change vs veh, N4BP2L2 / RFU, ARFIP1 / Fold change vs veh, ARFIP1 / RFU, FAM179B / Fold change vs veh, FAM179B / RFU, BCL10 / Fold change vs veh, BCL10 / RFU, UHRF1BP1L / Fold change vs veh, UHRF1BP1L / RFU, BET1 / Fold change vs veh, BET1 / RFU, CNOT2 / Fold change vs veh, CNOT2 / RFU, ZNF268 / Fold change vs veh, ZNF268 / Fold change vs veh, ZNF507 / RFU, DGCR2 / Fold change vs veh, DGCR2 / RFU, WDSUB1 / Fold change vs veh, WDSUB1 / Fold change vs veh, HSP90B1 /// MIR3652 / RFU, ADSS / Fold change vs veh, ADSS / RFU, GK / Fold change vs veh, GK / RFU, ZNF148 / Fold change vs veh, ZNF148 / RFU, TAF9 / Fold change vs veh, TAF9 / RFU, SLC1A5 / Fold change vs veh, SLC1A5 / RFU, SLMO2 / Fold change vs veh, SLMO2 / RFU, ABCC4 / Fold change vs veh, ABCC4 / RFU, LOC101060439 /// RAP1B / Fold change vs veh, LOC101060439 /// RAP1B / RFU, RFX7 / Fold change vs veh, RFX7 / RFU, GTPBP10 / Fold change vs veh, GTPBP10 / RFU, CNEP1R1 / Fold change vs veh, CNEP1R1 / RFU, BIVM-ERCC5 /// ERCC5 / Fold change vs veh, BIVM-ERCC5 /// ERCC5 / RFU, ILF3 / Fold change vs veh, ILF3 / RFU 11762660_at / Fold change /veh 11762660_at / RFU VCAN (11757783_s_at) / Fold change /veh VCAN (11757783_s_at) / RFU DDX43 (11728927_at) / Fold change /veh DDX43 (11728927_at) / RFU KRT8 (11758188_x_at) / Fold change /veh KRT8 (11758188_x_at) / RFU NKD1 (11759106_at) / Fold change /veh NKD1 (11759106_at) / RFU SRD5A1 (11742802_a_at) / Fold change /veh SRD5A1 (11742802_a_at) / RFU TPSAB1 /// TPSB2 (11721975_s_at) / Fold change /veh TPSAB1 /// TPSB2 (11721975_s_at) / RFU GSTM3 (11746129_a_at) / Fold change /veh GSTM3 (11746129_a_at) / RFU IL23R (11737362_x_at) / Fold change /veh IL23R (11737362_x_at) / RFU TMEM51 (11727254_a_at) / Fold change /veh TMEM51 (11727254_a_at) / RFU PIWIL2 (11732686_x_at) / Fold change /veh PIWIL2 (11732686_x_at) / RFU ORM1 (11744905_x_at) / Fold change /veh ORM1 (11744905_x_at) / RFU CCDC152 (11743942_at) / Fold change /veh CCDC152 (11743942_at) / RFU ECM1 (11717891_a_at) / Fold change /veh ECM1 (11717891_a_at) / RFU IL23R (11748794_a_at) / Fold change /veh IL23R (11748794_a_at) / RFU TNFAIP8L3 (11732012_x_at) / Fold change /veh TNFAIP8L3 (11732012_x_at) / RFU MBOAT4 (11741988_at) / Fold change /veh MBOAT4 (11741988_at) / RFU 11764193_at / Fold change /veh 11764193_at / RFU TMEM53 (11763286_at) / Fold change /veh TMEM53 (11763286_at) / RFU MAGEB2 (11727129_at) / Fold change /veh MAGEB2 (11727129_at) / RFU TMEM200A (11744735_a_at) / Fold change /veh TMEM200A (11744735_a_at) / RFU CCDC152 (11751479_a_at) / Fold change /veh CCDC152 (11751479_a_at) / RFU FAM211A (11726209_a_at) / Fold change /veh FAM211A (11726209_a_at) / RFU RGS16 (11746705_a_at) / Fold change /veh RGS16 (11746705_a_at) / RFU VCAN (11755009_s_at) / Fold change /veh VCAN (11755009_s_at) / RFU RHOB (11743442_s_at) / Fold change /veh RHOB (11743442_s_at) / RFU RGS16 (11720943_a_at) / Fold change /veh RGS16 (11720943_a_at) / RFU RGS16 (11720944_at) / Fold change /veh RGS16 (11720944_at) / RFU, VPS4B / Fold change vs veh, VPS4B / RFU, CREB1 / Fold change vs veh, CREB1 / RFU, DNAJC13 / Fold change vs veh, DNAJC13 / RFU, GNAQ / Fold change vs veh, GNAQ / RFU, CDK5R1 / Fold change vs veh, CDK5R1 / RFU, ZRANB3 / Fold change vs veh, ZRANB3 / RFU, CUL4A / Fold change vs veh, CUL4A / RFU, CCNY / Fold change vs veh, CCNY / RFU, UFL1 / Fold change vs veh, UFL1 / RFU, COG3 / Fold change vs veh, COG3 / RFU, DIAPH2 / Fold change vs veh, DIAPH2 / RFU, SKA2 / Fold change vs veh, SKA2 / RFU, AFF3 / Fold change vs veh, AFF3 / RFU, LMF1 / Fold change vs veh, LMF1 / RFU, IPO11 / Fold change vs veh, IPO11 / RFU, DFFB / Fold change vs veh, DFFB / RFU, FOXP1 / Fold change vs veh, FOXP1 / RFU, CARD8 / Fold change vs veh, CARD8 / RFU, STRN3 / Fold change vs veh, STRN3 / RFU, ADK / Fold change vs veh, ADK / RFU, RASSF2 / Fold change vs veh, RASSF2 / RFU, WIPF1 / Fold change vs veh, WIPF1 / RFU, LARP1B / Fold change vs veh, LARP1B / RFU, RASA1 / Fold change vs veh, RASA1 / RFU, RB1 / Fold change vs veh, RB1 / RFU, PPFIA1 / Fold change vs veh, PPFIA1 / RFU, MAT2A / Fold change vs veh, MAT2A / RFU, CCT5 / Fold change vs veh, CCT5 / RFU, WDR92 / Fold change vs veh, WDR92 / RFU, CUX1 / Fold change vs veh, CUX1 / RFU, TTC7A / Fold change vs veh, TTC7A / RFU, TMEM135 / Fold change vs veh, TMEM135 / RFU, DEPTOR / Fold change vs veh, DEPTOR / RFU, CPM / Fold change vs veh, CPM / RFU, DNAJB6 / Fold change vs veh, DNAJB6 / RFU, CACNA2D3 / Fold change vs veh, CACNA2D3 / RFU, DTX4 / Fold change vs veh, DTX4 / RFU, TFCP2 / Fold change vs veh, TFCP2 / RFU, GMCL1 /// GMCL1P1 / Fold change vs veh, GMCL1 /// GMCL1P1 / RFU, AEBP2 / Fold change vs veh, AEBP2 / RFU, SNHG1 /// SNORD22 /// SNORD25 /// SNORD26 /// SNORD27 /// SNORD28 /// SNORD29 /// SNORD31 / Fold change vs veh, SNHG1 /// SNORD22 /// SNORD25 /// SNORD26 /// SNORD27 /// SNORD28 /// SNORD29 /// SNORD31 / Fold change (Aza/veh), C12orf56 (ProbeSet 11735607_a_at) / Fold change (ACY-1035/veh), C12orf56 (ProbeSet 11735607_a_at) / Fold change (Aza/veh), FGFR1OP (ProbeSet 11751329_s_at) / Fold change (ACY-1035/veh), FGFR1OP (ProbeSet 11751329_s_at) / Fold change (Aza/veh), VPS36 (ProbeSet 11739960_a_at) / Fold change (ACY-1035/veh), VPS36 (ProbeSet 11739960_a_at) / RFU SYPL1 (11715823_x_at) / Fold change /veh SYPL1 (11715823_x_at) / RFU IGFBP7 (11715501_s_at) / Fold change /veh IGFBP7 (11715501_s_at) / RFU REEP3 (11722064_at) / Fold change /veh REEP3 (11722064_at) / RFU IGLL1 (11728026_x_at) / Fold change /veh IGLL1 (11728026_x_at): dose or concentration left out as unconfirmed
Settings: ProbeSet 11747889_x_at; LIST B

## Nc1ncn([C@@H]2O[C@H](CO)[C@@H](O)[C@H]2O)c(=O)n1 [azacitidine]
  Fold change vs veh, SH3YL1: 0.87
